Results on three molecules are retold here after ChEMBL document CHEMBL1926625, “Identification of benzoxazin-3-one derivatives as novel, potent, and selective nonsteroidal mineralocorticoid receptor antagonists” (J Med Chem, 2011).

Data set [1] in a line: Clearance in rat liver microsomes at 1 umol/L preincubated for 5 mins measured after 60 mins by UV analysis. The data set is classed as ADME, Microsome. In general terms: Liver microsomes are a subcellular fraction often used to study metabolism.
Data set [2] deals with T1, Androgen receptor (Homo sapiens, UniProt P10275).
T1 sequence (P10275 whole entry): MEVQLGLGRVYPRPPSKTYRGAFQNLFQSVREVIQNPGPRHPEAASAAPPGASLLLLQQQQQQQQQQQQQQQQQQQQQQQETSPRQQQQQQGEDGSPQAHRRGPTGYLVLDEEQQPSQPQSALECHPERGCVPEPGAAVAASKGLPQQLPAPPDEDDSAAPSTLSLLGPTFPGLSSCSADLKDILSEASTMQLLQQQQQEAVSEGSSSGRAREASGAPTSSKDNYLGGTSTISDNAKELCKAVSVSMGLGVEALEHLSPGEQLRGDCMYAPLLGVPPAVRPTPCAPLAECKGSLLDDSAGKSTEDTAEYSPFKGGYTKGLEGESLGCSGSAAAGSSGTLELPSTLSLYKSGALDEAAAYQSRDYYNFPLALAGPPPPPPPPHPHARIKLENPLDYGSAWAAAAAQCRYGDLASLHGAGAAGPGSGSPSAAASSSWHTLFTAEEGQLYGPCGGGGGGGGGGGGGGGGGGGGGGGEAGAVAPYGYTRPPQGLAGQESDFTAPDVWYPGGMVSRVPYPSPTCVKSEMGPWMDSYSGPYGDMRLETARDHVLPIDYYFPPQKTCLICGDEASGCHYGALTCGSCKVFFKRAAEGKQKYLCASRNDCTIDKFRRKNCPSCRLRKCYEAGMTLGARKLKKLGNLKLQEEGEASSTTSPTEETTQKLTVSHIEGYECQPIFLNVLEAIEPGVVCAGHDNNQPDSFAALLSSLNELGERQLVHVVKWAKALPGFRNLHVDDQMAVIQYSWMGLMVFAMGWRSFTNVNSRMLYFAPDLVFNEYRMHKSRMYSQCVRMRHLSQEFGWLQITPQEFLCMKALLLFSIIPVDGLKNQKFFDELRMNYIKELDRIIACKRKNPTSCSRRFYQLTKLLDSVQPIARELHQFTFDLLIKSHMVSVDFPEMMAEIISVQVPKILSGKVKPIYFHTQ
Description: Displacement of [3H]testosterone from AR.

Data set [3] has as its target T2, Mineralocorticoid receptor (Homo sapiens, UniProt P08235).
T2 sequence (P08235 whole entry): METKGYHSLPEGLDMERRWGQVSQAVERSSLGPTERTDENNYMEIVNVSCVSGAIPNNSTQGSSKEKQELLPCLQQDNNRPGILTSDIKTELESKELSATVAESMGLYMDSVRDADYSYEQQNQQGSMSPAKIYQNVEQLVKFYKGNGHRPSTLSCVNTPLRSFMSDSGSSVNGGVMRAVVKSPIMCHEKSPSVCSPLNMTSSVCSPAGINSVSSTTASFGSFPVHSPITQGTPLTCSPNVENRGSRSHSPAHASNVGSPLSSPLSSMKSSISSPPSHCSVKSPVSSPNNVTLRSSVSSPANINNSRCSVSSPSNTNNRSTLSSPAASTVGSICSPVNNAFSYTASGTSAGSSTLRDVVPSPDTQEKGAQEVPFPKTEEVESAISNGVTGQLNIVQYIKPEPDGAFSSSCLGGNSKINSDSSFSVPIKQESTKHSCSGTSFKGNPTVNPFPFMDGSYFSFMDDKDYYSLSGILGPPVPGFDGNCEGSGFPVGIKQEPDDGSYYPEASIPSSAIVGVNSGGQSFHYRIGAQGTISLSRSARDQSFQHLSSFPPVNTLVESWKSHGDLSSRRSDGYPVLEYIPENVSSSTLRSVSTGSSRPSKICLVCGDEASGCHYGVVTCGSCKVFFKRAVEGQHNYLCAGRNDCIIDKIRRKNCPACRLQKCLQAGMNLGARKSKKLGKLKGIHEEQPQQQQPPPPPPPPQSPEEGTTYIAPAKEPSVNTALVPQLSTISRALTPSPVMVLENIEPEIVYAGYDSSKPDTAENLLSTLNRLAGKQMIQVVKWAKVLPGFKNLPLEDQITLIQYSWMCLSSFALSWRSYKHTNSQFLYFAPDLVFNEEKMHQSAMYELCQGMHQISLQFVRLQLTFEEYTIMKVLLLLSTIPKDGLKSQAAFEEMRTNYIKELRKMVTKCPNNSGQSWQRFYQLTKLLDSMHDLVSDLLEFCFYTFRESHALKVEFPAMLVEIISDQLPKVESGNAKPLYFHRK
Description: biochemical.
Description: Displacement of [3H]aldosterone from cytosolic human MR expressed in HEK293 cells after 16 hrs by scintillation counting

Data set [4] addresses T3, Progesterone receptor (Homo sapiens, UniProt P06401).
T3 sequence (P06401 whole entry): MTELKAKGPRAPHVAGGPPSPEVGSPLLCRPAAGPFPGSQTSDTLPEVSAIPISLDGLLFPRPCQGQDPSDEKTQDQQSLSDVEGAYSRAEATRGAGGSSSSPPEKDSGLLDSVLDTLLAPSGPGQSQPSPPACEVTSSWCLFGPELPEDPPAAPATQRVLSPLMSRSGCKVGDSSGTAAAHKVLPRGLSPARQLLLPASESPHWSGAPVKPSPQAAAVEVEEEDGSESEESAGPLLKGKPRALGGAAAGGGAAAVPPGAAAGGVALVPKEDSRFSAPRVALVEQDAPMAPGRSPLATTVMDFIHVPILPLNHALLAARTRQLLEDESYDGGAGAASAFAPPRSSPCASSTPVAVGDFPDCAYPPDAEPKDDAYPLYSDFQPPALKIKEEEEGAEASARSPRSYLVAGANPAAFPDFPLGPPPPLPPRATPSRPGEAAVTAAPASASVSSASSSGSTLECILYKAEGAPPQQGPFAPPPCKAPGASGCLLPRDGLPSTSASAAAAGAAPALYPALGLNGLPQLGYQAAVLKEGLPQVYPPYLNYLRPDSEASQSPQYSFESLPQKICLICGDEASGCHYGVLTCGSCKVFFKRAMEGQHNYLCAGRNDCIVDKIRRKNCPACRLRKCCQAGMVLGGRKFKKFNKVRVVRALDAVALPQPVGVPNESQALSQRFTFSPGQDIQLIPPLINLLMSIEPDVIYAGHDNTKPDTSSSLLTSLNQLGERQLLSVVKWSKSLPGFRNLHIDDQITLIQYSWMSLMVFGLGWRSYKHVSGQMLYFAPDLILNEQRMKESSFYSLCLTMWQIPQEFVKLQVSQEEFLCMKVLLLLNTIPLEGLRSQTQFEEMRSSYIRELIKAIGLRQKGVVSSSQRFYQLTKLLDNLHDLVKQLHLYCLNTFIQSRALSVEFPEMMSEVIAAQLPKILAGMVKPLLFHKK
The data set is described as follows: Displacement of [3H]progesterone from PR. (In a radioligand displacement assay an active substance lowers the binding of a labelled ligand.)

For data set [5], the target named is T4, Glucocorticoid receptor (Homo sapiens, UniProt P04150).
T4 sequence (P04150 whole entry): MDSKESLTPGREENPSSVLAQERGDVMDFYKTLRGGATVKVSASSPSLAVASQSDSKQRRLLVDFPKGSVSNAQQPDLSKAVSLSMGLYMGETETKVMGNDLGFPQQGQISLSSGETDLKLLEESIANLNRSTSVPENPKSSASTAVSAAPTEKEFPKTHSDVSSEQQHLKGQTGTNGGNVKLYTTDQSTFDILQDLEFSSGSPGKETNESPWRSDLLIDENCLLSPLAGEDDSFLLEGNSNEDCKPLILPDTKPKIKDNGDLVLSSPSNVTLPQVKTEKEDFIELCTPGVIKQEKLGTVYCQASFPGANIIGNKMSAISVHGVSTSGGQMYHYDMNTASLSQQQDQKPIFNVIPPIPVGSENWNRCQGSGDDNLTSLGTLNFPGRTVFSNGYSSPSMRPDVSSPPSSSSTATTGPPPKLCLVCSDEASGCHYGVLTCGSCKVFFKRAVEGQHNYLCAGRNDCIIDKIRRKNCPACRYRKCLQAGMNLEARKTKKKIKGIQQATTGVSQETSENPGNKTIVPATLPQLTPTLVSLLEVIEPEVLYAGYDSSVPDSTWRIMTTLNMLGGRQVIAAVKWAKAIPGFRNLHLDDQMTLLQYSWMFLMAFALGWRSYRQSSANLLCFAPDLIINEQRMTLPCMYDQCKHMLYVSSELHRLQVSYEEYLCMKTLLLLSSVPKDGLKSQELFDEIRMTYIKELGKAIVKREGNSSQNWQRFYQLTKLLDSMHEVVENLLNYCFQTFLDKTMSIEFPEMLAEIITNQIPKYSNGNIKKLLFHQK
Description: Displacement of [3H]dexomethasone from GR.

Data set [6] is described as follows: Bioavailability in Sprague-Dawley rat at 3 mg/kg, iv and 10 mg/kg, po. The data set is classed as ADME, organism-based. The note with it: in vivo.

Molecules are shown by their SMILES.

`O=C1COc2ccc(C3=Nn4cnnc4SC3c3ccc(F)cc3)cc2N1` (stereo not drawn): the microsomal CLint (commonly the capacity of the preparation to metabolise the compound, expressed as a volume cleared per time) at 1 µM in data set [1] was 60 µL/min/mg. For the same molecule, the IC50 (in general, the concentration that gives 50% inhibition) is above 10 µM in data set [2], 0.27 µM in data set [3], above 10 µM in data set [4] and above 10 µM in data set [5].
Molecule `Cc1cc(-c2ccc3c(c2)NC(=O)CO3)n(-c2ccc(F)cc2)n1` displayed a microsomal CLint at 1 µM in data set [1] of 164 µL/min/mg. The IC50 in data set [2] is above 10 µM; in data set [3], 1.1 µM; in data set [4], above 10 µM; in data set [5] it was 6.9 µM.
For the molecule `O=C1COc2ccc(-c3cc(C(F)(F)F)nn3-c3ccc(F)cc3)cc2N1`, in data set [1], the microsomal CLint at 1 µM came to 24 µL/min/mg. The bioavailability (commonly the share of a dose that reaches the circulation, judged against a reference dose that is usually intravenous) in data set [6] was found to be 28%. Also, in data set [3], the IC50 is 0.26 µM.
